For this assay, the system named is Lewis lung carcinoma i.m., BDF1 mice, T/C %. As to the kind of experiment: NCI In Vivo Anticancer Drug Screen. Data for tumor model Lewis Lung Carcinoma (intramuscular) in B6D2F1 (BDF1) mice. Put shortly:
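Antitumour activity is assessed in transplanted-tumour mice. Endpoint is survival or tumour size, normalised to vehicle-dosed controls (T/C).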

Where [1] appears, read: endpoint: mean tumor weight, dose: 12.5 mg/kg/injection, schedule: Q01DX011 (ip), vehicle: saline with Tween-80, higher = larger tumour.
[2] abbreviates: endpoint: median survival time, dose: 12.5 mg/kg/injection, schedule: Q01DX011 (ip), vehicle: saline with Tween-80, higher = longer survival.
The mark [3] stands for this setting: endpoint: median survival time, dose: 25.0 mg/kg/injection, schedule: Q01DX011 (ip), vehicle: saline with Tween-80, higher = longer survival.
[4] abbreviates: endpoint: median survival time, dose: 50.0 mg/kg/injection, schedule: Q01DX011 (ip), vehicle: saline with Tween-80, higher = longer survival.
Setting [5] is: endpoint: mean tumor weight (est.), dose: 25.0 mg/kg/injection, schedule: Q01DX011 (ip), vehicle: saline with Tween-80, higher = larger tumour.
The mark [6] stands for this setting: endpoint: mean tumor weight (est.), dose: 50.0 mg/kg/injection, schedule: Q01DX011 (ip), vehicle: saline with Tween-80, higher = larger tumour.
[7] abbreviates: endpoint: mean tumor weight (est.), dose: 12.5 mg/kg/injection, schedule: Q01DX011 (ip), vehicle: saline with Tween-80, higher = larger tumour.
Setting [8] is: endpoint: median survival time, dose: 7.5 mg/kg/injection, schedule: Q01DX011 (ip), vehicle: saline, higher = longer survival.

Where “and” joins values, the source holds several entries; their conditions need not be identical. Equal entries are not always repeated. Records with an inconclusive call do not appear.

For `C=CCNC(=O)NCC=C`, the T/C (endpoint: mean tumor weight, dose: 6.25 mg/kg/injection, schedule: Q01DX011 (ip), vehicle: saline with Tween-80, higher = larger tumour) was 74 % of control; the T/C under setting [1] was 69 % of control; the T/C (endpoint: mean tumor weight, dose: 25.0 mg/kg/injection, schedule: Q01DX011 (ip), vehicle: saline with Tween-80, higher = larger tumour) is 73 % of control; the T/C (endpoint: mean tumor weight, dose: 50.0 mg/kg/injection, schedule: Q01DX011 (ip), vehicle: saline with Tween-80, higher = larger tumour) is 76 % of control; the T/C (endpoint: mean tumor weight, dose: 100.0 mg/kg/injection, schedule: Q01DX011 (ip), vehicle: saline with Tween-80, higher = larger tumour) is 80 % of control; the T/C (endpoint: median survival time, dose: 6.25 mg/kg/injection, schedule: Q01DX011 (ip), vehicle: saline with Tween-80, higher = longer survival) was 113 % of control. Besides, the T/C was 108 % of control under setting [2]; 113 % of control under setting [3]; 86 % of control under setting [4]; 100 % of control (endpoint: median survival time, dose: 100.0 mg/kg/injection, schedule: Q01DX011 (ip), vehicle: saline with Tween-80, higher = longer survival).
Turning to `O=C(CCBr)N1CCN(C(=O)CCBr)CC1`, the T/C is 73 % of control (endpoint: mean tumor weight, dose: 50.0 mg/kg/injection, schedule: Q01DX011 (ip), vehicle: steriod suspending solution, higher = larger tumour); 73 % of control (endpoint: mean tumor weight, dose: 100.0 mg/kg/injection, schedule: Q01DX011 (ip), vehicle: steriod suspending solution, higher = larger tumour); 37 % of control (endpoint: mean tumor weight, dose: 200.0 mg/kg/injection, schedule: Q01DX011 (ip), vehicle: steriod suspending solution, higher = larger tumour).
Take `CS(=O)(=O)c1cc(C(F)(F)F)cc([N+](=O)[O-])c1Cl`: the T/C was 108 % of control under setting [5], 63 % of control under setting [6], 115 % of control under setting [3] and 111 % of control under setting [4].
Take `N[C@H](C(=O)O)[C@H]1ON=C(Cl)[C@@H]1O`: the T/C reads like this: (endpoint: median survival time, dose: 8.0 mg/kg/injection, schedule: Q01DX013 (ip), vehicle: saline, higher = longer survival) 92 % of control; (endpoint: median survival time, dose: 16.0 mg/kg/injection, schedule: Q01DX013 (ip), vehicle: saline, higher = longer survival) 107 % of control.
Regarding `Cc1c(N)nc(C(CC(N)=O)NCC(N)C(N)=O)nc1C(=O)NC(C(=O)NC(C)C(O)C(C)C(=O)NC(C(=O)NCCc1nc(-c2nc(C(=O)NCCC[S+](C)C)cs2)cs1)C(C)O)C(OC1OC(CO)C(O)C(O)C1OC1OC(CO)C(O)C(OC(N)=O)C1O)c1cnc[nH]1` (stereo unspecified), the T/C is, setting by setting: (endpoint: median survival time, dose: 6.5 mg/kg/injection, schedule: Q01DX011 (ip), vehicle: saline, higher = longer survival) 152 % of control; (endpoint: median survival time, dose: 10.8 mg/kg/injection, schedule: Q01DX011 (ip), vehicle: saline, higher = longer survival) 168 % of control; (endpoint: median survival time, dose: 18.0 mg/kg/injection, schedule: Q01DX011 (ip), vehicle: saline, higher = longer survival) 166 % of control.
In the case of `CN1Cc2c(ccc3c2OCO3)[C@@H]2[C@H](O)Cc3cc4c(cc3[C@@H]21)OCO4`, the T/C (endpoint: mean tumor weight, dose: 62.5 mg/kg/injection, schedule: Q01DX011 (ip), vehicle: saline, higher = larger tumour) is 75 % of control; the T/C (endpoint: mean tumor weight, dose: 125.0 mg/kg/injection, schedule: Q01DX011 (ip), vehicle: saline, higher = larger tumour) is 47 % of control; the T/C (endpoint: mean tumor weight, dose: 500.0 mg/kg/injection, schedule: Q01DX011 (ip), vehicle: saline, higher = larger tumour) was 32 % of control; the T/C (endpoint: median survival time, dose: 62.5 mg/kg/injection, schedule: Q01DX011 (ip), vehicle: saline, higher = longer survival) is 91 % of control; the T/C (endpoint: median survival time, dose: 125.0 mg/kg/injection, schedule: Q01DX011 (ip), vehicle: saline, higher = longer survival) is 95 % of control; the T/C (endpoint: median survival time, dose: 500.0 mg/kg/injection, schedule: Q01DX011 (ip), vehicle: saline, higher = longer survival) was 93 % of control.
In the case of `O=c1[nH]c(=O)n(C2CC(O)C(CO)O2)cc1C(F)(F)F` (stereo unspecified), the T/C reads like this: (endpoint: median survival time, dose: 2.5 mg/kg/injection, schedule: Q01DX009 (ip), vehicle: saline, higher = longer survival) 101 % of control; (endpoint: median survival time, dose: 10.0 mg/kg/injection, schedule: Q01DX009 (ip), vehicle: saline, higher = longer survival) 93 % of control; (endpoint: median survival time, dose: 20.0 mg/kg/injection, schedule: Q01DX009 (ip), vehicle: saline, higher = longer survival) 94 % of control and 101 % of control.
On to `CS(=O)(=O)OCC(O)C(O)COS(C)(=O)=O` (stereo unspecified), for which the T/C is 100 % of control (endpoint: median survival time, dose: 100.0 mg/kg/injection, schedule: Q01DX011 (ip), vehicle: saline, higher = longer survival) and 100 % of control (endpoint: median survival time, dose: 400.0 mg/kg/injection, schedule: Q01DX011 (ip), vehicle: saline, higher = longer survival).
On to `O=c1n(CC2CO2)c(=O)n(CC2CO2)c(=O)n1CC1CO1` (stereo unspecified), for which the T/C was 115 % of control (endpoint: median survival time, dose: 20.0 mg/kg/injection, schedule: Q01DX011 (ip), vehicle: saline, higher = longer survival); 120 % of control and 122 % of control (endpoint: median survival time, dose: 30.0 mg/kg/injection, schedule: Q01DX011 (ip), vehicle: saline, higher = longer survival); 117 % of control and 124 % of control (endpoint: median survival time, dose: 40.0 mg/kg/injection, schedule: Q01DX011 (ip), vehicle: saline, higher = longer survival); 114 % of control (endpoint: median survival time, dose: 70.0 mg/kg/injection, schedule: Q01DX011 (ip), vehicle: saline, higher = longer survival); 90 % of control (endpoint: median survival time, dose: 80.0 mg/kg/injection, schedule: Q01DX011 (ip), vehicle: saline, higher = longer survival); 115 % of control (endpoint: median survival time, dose: 90.0 mg/kg/injection, schedule: Q01DX011 (ip), vehicle: saline, higher = longer survival).
`CCC/C(C)=N/Nc1ccccn1`: the T/C by setting is: under setting [7], 85 % of control; under setting [5], 84 % of control; under setting [6], 81 % of control; under setting [2], 94 % of control; under setting [3], 88 % of control.
Consider `C=C(C(=O)OC1CC2CCC(C1)N2C)c1ccccc1` (stereo unspecified), for which the T/C under setting [8] was 119 % of control.
Regarding `C(=C\c1ccccc1)/C[P+](c1ccccc1)(c1ccccc1)c1ccccc1`, the T/C (endpoint: mean tumor weight (est.), dose: 0.6 mg/kg/injection, schedule: Q01DX011 (ip), vehicle: saline, higher = larger tumour) is 101 % of control; the T/C (endpoint: mean tumor weight (est.), dose: 1.25 mg/kg/injection, schedule: Q01DX011 (ip), vehicle: saline, higher = larger tumour) is 100 % of control; the T/C (endpoint: mean tumor weight (est.), dose: 2.5 mg/kg/injection, schedule: Q01DX011 (ip), vehicle: saline, higher = larger tumour) is 105 % of control; the T/C (endpoint: mean tumor weight (est.), dose: 5.0 mg/kg/injection, schedule: Q01DX011 (ip), vehicle: saline, higher = larger tumour) is 93 % of control; the T/C (endpoint: median survival time, dose: 0.6 mg/kg/injection, schedule: Q01DX011 (ip), vehicle: saline, higher = longer survival) was 98 % of control; the T/C (endpoint: median survival time, dose: 1.25 mg/kg/injection, schedule: Q01DX011 (ip), vehicle: saline, higher = longer survival) is 107 % of control. Moreover, the T/C is 98 % of control (endpoint: median survival time, dose: 2.5 mg/kg/injection, schedule: Q01DX011 (ip), vehicle: saline, higher = longer survival) and 100 % of control (endpoint: median survival time, dose: 5.0 mg/kg/injection, schedule: Q01DX011 (ip), vehicle: saline, higher = longer survival).
Regarding `CSc1ncnc2c1ncn2C1OC(CO)C(O)C1O` (stereo unspecified), the T/C runs as follows: (endpoint: mean tumor weight, dose: 3.75 mg/kg/injection, schedule: Q01DX011 (ip), vehicle: saline, higher = larger tumour) 86 % of control; (endpoint: mean tumor weight, dose: 7.5 mg/kg/injection, schedule: Q01DX011 (ip), vehicle: saline, higher = larger tumour) 63 % of control; (endpoint: median survival time, dose: 3.75 mg/kg/injection, schedule: Q01DX011 (ip), vehicle: saline, higher = longer survival) 100 % of control; under setting [8], 90 % of control.
On to `CC(C(=O)O)N1C(=O)c2ccccc2C1=O` (stereo unspecified), for which the T/C is, setting by setting: (endpoint: median survival time, dose: 4.0 mg/kg/injection, schedule: Q01DX009 (ip), vehicle: water, higher = longer survival) 110 % of control; (endpoint: median survival time, dose: 8.0 mg/kg/injection, schedule: Q01DX009 (ip), vehicle: water, higher = longer survival) 107 % of control; (endpoint: median survival time, dose: 16.0 mg/kg/injection, schedule: Q01DX009 (ip), vehicle: water, higher = longer survival) 103 % of control; (endpoint: median survival time, dose: 32.0 mg/kg/injection, schedule: Q01DX009 (ip), vehicle: water, higher = longer survival) 108 % of control.
In the case of `CS(=O)(=O)OCCC(=O)N1CCN(C(=O)CCOS(C)(=O)=O)CC1`, the T/C by setting is: (endpoint: mean tumor weight, dose: 12.5 mg/kg/injection, schedule: Q01DX011 (ip), vehicle: saline, higher = larger tumour) 79 % of control; (endpoint: mean tumor weight, dose: 25.0 mg/kg/injection, schedule: Q01DX011 (ip), vehicle: saline, higher = larger tumour) 60 % of control; (endpoint: mean tumor weight, dose: 50.0 mg/kg/injection, schedule: Q01DX011 (ip), vehicle: saline, higher = larger tumour) 61 % of control; (endpoint: median survival time, dose: 12.5 mg/kg/injection, schedule: Q01DX011 (ip), vehicle: saline, higher = longer survival) 104 % of control; (endpoint: median survival time, dose: 25.0 mg/kg/injection, schedule: Q01DX011 (ip), vehicle: saline, higher = longer survival) 97 % of control.
Take `COc1ccc2c(Nc3ccc(NS(C)(=O)=O)cc3)c3ccccc3nc2c1`: the T/C by setting is: under setting [1], 52 % of control; under setting [2], 107 % of control.
On to `O=[N+]([O-])c1cc(Cl)cc2c1nc(NCCO)c1ccccc12`, for which the T/C runs as follows: under setting [7], 70 % of control; under setting [5], 43 % of control; under setting [2], 98 % of control.

These data come from PubChem BioAssay AID272 (DTP/NCI, 2004).
